In patent EP4556005A1, “COMPOUND FOR TREATING FLAVIVIRUS INFECTIONS” (Leibniz-Institut für Virologie, priority 2023, dated 2025):

Experiments:
[1] = Cytotoxicity, cell viability by Resazurin assay; assay type: cell-based; details: human, JEG-3 human placental cells; naive JEG-3 cells, 24-well plates (8×10^4 cells/well), increasing amounts of inhibitor, viability read forty-height (48) hours later; Figure 3A; read-out: 50% cytotoxicity concentration (CC50)
Protocol: In a first experiment, the cytotoxicity of the UBA5 inhibitor DKM29-3 was determined. Naive JEG-3 human placental cells were seeded in 24-well plates (8×10^4 cells/well) and on the next day treated with increasing amounts of the UBA5 inhibitor DKM29-3.

ZIKV (PRVABC59 strain) = test: Zika virus replication in infected JEG-3 cells, plaque-forming unit assay (PFU) on VeroE6 cells; assay type: cell-based; details: wild-type JEG-3 cells, MOI 0.01, 16 µM or 32 µM added after virus absorption, supernatants analysed forty-height (48) hours later; n=4; Mann-Whitney test p-value < 0.05
Protocol: Then, the effect of UBA5-inhibitor DKM29-3 on Zika virus replication was studied. Wild-type JEG-3 cells were seeded as described above and infected with ZIKV (PRVABC59 strain) at an MOI (Multiplicity of Infection) of 0.01 for 1h at 37°C. After virus absorption the cells monolayers were washed with PBS (Phosphate Buffer Saline), and cell culture media containing 16 µM or 32 µM of DKM29-3 were added to the cells. Forty-height hours later virus-containing supernatants were analyzed by plaque-forming unit assay (PFU) on VeroE6 cells (n=4; Mann-Whitney test p-value < 0.05).

COc1ccc(CNC(=O)CCl)cc1OC [DKM29-3, 2-chloro-N-(3,4-dimethoxybenzyl)acetamide]
CC50 at 48 h [1]: 80.2 µM | Zika virus replication (ZIKV (PRVABC59 strain)): significantly reduced
